In general, IC50 refers to the midpoint of a concentration-inhibition curve.

Counter-ions that a name gives are not always drawn.

Chain of IRAK4 (Q9NWZ3 whole entry): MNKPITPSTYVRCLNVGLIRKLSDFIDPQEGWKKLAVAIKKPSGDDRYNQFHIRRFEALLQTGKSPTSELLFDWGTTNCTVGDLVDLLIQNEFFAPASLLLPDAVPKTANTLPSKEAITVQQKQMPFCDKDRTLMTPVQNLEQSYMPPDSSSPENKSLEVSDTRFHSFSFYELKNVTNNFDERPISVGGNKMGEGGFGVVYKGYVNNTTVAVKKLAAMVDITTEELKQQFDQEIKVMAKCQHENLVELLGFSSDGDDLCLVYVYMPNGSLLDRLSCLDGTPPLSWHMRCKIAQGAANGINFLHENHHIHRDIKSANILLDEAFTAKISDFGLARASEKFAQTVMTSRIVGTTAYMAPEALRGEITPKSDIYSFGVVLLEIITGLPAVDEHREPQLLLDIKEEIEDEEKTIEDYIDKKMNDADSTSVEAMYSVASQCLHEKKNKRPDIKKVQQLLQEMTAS

One experiment addresses IRAK4 (Homo sapiens (Human), UniProt Q9NWZ3). The experiment is described as follows: IRAK4 Kinase Assay. The format is biochemical. Particulars: IMAP fluorescence polarization, 0.5 nM GST tagged IRAK4, 100 μM ATP, 30 minutes at 25° C.; read-out: IRAK4 IC50. Background: Fluorescence polarisation rises when a labelled molecule tumbles more slowly, as on binding a larger partner.
With `Cn1cc(NC(=O)c2cnn3ccc(N4C[C@H]5CC[C@@H]4CN5)nc23)c(Br)n1` (single isomer, unassigned) [Example 165, N-(3-bromo-1-methyl-1H-pyrazol-4-yl)-5-[(1S,4S)- or (1R,4R)-2,5-diazabicyclo[2.2.2]oct-2-yl]pyrazolo[1,5-a]pyrimidine-3-carboxamide trifluoroacetate], the 50% inhibitory concentration (IC50) stood at 19 nM. Still for that read-out and setting: next, `O=C(Nc1cscc1Cl)c1cnn2ccc(N3C[C@@H]4CC[C@H]3CN4)nc12` (single isomer, unassigned) [Example 169, N-(4-chlorothiophen-3-yl)-5-[(1S,4S)- or (1R,4R)-2,5-diazabicyclo[2.2.2]oct-2-yl]pyrazolo[1,5-a]pyrimidine-3-carboxamide trifluoroacetate]: 150 nM.

Take `O=C(Nc1cscc1Cl)c1cnn2ccc(N3C[C@H]4CC[C@@H]3CN4)nc12` (single isomer, unassigned) [Example 171, N-(4-chlorothiophen-3-yl)-5-[(1S,4S)- or (1R,4R)-2,5-diazabicyclo[2.2.2]oct-2-yl]pyrazolo[1,5-a]pyrimidine-3-carboxamide trifluoroacetate]: the IC50 is 383 nM. With `Cn1cc(NC(=O)c2cnn3ccc(N4CC[C@@H](F)[C@@H](N)C4)nc23)c(C(F)F)n1` (single isomer, unassigned) [Example 178, 5-[(3S,4R)- or (3R,4S)-3-amino-4-fluoropiperidin-1-yl]-N-[3-(difluoromethyl)-1-methyl-1H-pyrazol-4-yl]pyrazolo[1,5-a]pyrimidine-3-carboxamide trifluoroacetate], the IC50 turned out to be 4 nM.

In the case of `Cn1cc(NC(=O)c2cnn3ccc(N4CC[C@H](F)[C@H](N)C4)nc23)c(C(F)F)n1` (single isomer, unassigned) [Example 179, 5-[(3S,4R)- or (3R,4S)-3-amino-4-fluoropiperidin-1-yl]-N-[3-(difluoromethyl)-1-methyl-1H-pyrazol-4-yl]pyrazolo[1,5-a]pyrimidine-3-carboxamide trifluoroacetate], the IC50 turned out to be 0.5 nM. Consider `Cn1cc(NC(=O)c2cnn3ccc(N4C[C@@H]5CN[C@@H](C5)C4)nc23)c(C(F)F)n1` (single isomer, unassigned) [Example 183, 5-[(1S,5S)- or (1R,5R)-3,6-diazabicyclo[3.2.1]oct-3-yl]-N-[3-(difluoromethyl)-1-methyl-1H-pyrazol-4-yl]pyrazolo[1,5-a]pyrimidine-3-carboxamide trifluoroacetate], for which the IC50 worked out at 6 nM. On to `Cn1cc(NC(=O)c2cnn3ccc(N4C[C@H]5CN[C@H](C5)C4)nc23)c(C(F)F)n1` (single isomer, unassigned) [Example 184, 5-[(1S,5S)- or (1R,5R)-3,6-diazabicyclo[3.2.1]oct-3-yl]-N-[3-(difluoromethyl)-1-methyl-1H-pyrazol-4-yl]pyrazolo[1,5-a]pyrimidine-3-carboxamide trifluoroacetate], for which the IC50 was found to be 47 nM. In the case of `Cn1cc(NC(=O)c2cnn3ccc(N4CCC(F)(F)[C@@H](N)C4)nc23)c(C(F)(F)F)n1` (single isomer, unassigned) [Example 188, 5-[(4R)- or (4S)-(3-amino-4,4-difluoropiperidin-1-yl)-N-[1-methyl-3-(trifluoromethyl)-1H-pyrazol-4-yl]pyrazolo[1,5-a]pyrimidine-3-carboxamide trifluoroacetate], the IC50 worked out at 60 nM. For the molecule `Cn1cc(NC(=O)c2cnn3ccc(N4CCC(F)(F)[C@@H](N)C4)nc23)c(C(F)F)n1` (single isomer, unassigned) [Example 189, 5-[(4R)- or (4S)-(3-amino-4,4-difluoropiperidin-1-yl)-N-[3-(difluoromethyl)-1-methyl-1H-pyrazol-4-yl]pyrazolo[1,5-a]pyrimidine-3-carboxamide trifluoroacetate], the 50% inhibitory concentration (IC50) amounted to 2 nM.

For `Cn1cc(NC(=O)c2cnn3ccc(N4CCC(F)(F)[C@H](N)C4)nc23)c(C(F)(F)F)n1` (single isomer, unassigned) [Example 192, 5-[(4R)- or (4S)-(3-amino-4,4-difluoropiperidin-1-yl)-N-[1-methyl-3-(trifluoroemthyl)-1H-pyrazol-4-yl]pyrazolo[1,5-a]pyrimidine-3-carboxamide trifluoroacetate], the IC50 stood at 23 nM. For `Cn1cc(NC(=O)c2cnn3ccc(N4CCC(F)(F)[C@H](N)C4)nc23)c(C(F)F)n1` (single isomer, unassigned) [Example 193, 5-[(4R)- or (4S)-(3-amino-4,4-difluoropiperidin-1-yl)-N-[3-(difluoromethyl)-1-methyl-1H-pyrazol-4-yl]pyrazolo[1,5-a]pyrimidine-3-carboxamide trifluoroacetate], the concentration for half-maximal inhibition (IC50) stood at 2 nM.

Consider `Cn1cc(NC(=O)c2cnn3ccc(N[C@H]4C(O)CCC[C@H]4N)nc23)c(C(F)(F)F)n1` (single isomer, unassigned) [Example 202, 5-{[(1R,2R)- or (1S,2S)-2-amino-6-hydroxycyclohexyl]amino}-N-[1-methyl-3-(trifluoromethyl)-1H-pyrazol-4-yl]pyrazolo[1,5-a]pyrimidine-3-carboxamide], for which the IC50 is 4 nM. Turning to `Cn1cc(NC(=O)c2cnn3ccc(N[C@@H]4CCCC(F)[C@@H]4N)nc23)c(C(F)(F)F)n1` (single isomer, unassigned) [Example 203, 5-{[(1R,2R)- or (1S,2S)-2-amino-3-fluorocyclohexyl]amino}-N-[1-methyl-3-(trifluoromethyl)-1H-pyrazol-4-yl]pyrazolo[1,5-a]pyrimidine-3-carboxamide], the half-inhibitory concentration (IC50) was 7 nM. For `Cn1cc(NC(=O)c2cnn3ccc(N[C@H]4CCC(F)(F)C[C@H]4N)nc23)c(C(F)F)n1` (single isomer, unassigned) [Example 209, 5-{[(1S,2R)- or (1R,2S)-2-amino-4,4-difluorocyclohexyl]amino}-N-[3-(difluoromethyl)-1-methyl-1H-pyrazol-4-yl]pyrazolo[1,5-a]pyrimidine-3-carboxamide], the IC50 is 1 nM. Take `Cn1cc(NC(=O)c2cnn3ccc(N[C@H]4CC(F)(F)CC[C@H]4N)nc23)c(C(F)F)n1` (single isomer, unassigned) [Example 210, 5-{[(1S,2R)- or (1R,2S)-2-amino-5,5-difluorocyclohexyl]amino}-N-[3-(difluoromethyl)-1-methyl-1H-pyrazol-4-yl]pyrazolo[1,5-a]pyrimidine-3-carboxamide]: the concentration for half-maximal inhibition (IC50) worked out at 1 nM. Regarding `Cn1cc(NC(=O)c2cnn3ccc(N[C@@H]4CCC(F)(F)C[C@@H]4N)nc23)c(C(F)F)n1` (single isomer, unassigned) [Example 211, 5-{[(1S,2R)- or (1R,2S)-2-amino-4,4-difluorocyclohexyl]amino}-N-[3-(difluoromethyl)-1-methyl-1H-pyrazol-4-yl]pyrazolo[1,5-a]pyrimidine-3-carboxamide], the IC50 was determined as 27 nM. Same read-out and setting: next, `Cn1cc(NC(=O)c2cnn3ccc(N[C@@H]4CNCC(F)(F)C4)nc23)c(C(F)(F)F)n1` (single isomer, unassigned) [Example 218, 5-{[(3S)- or (3R)-5,5-difluoropiperidin-3-yl]amino}-N-[1-methyl-3-(trifluoromethyl)-1H-pyrazol-4-yl]pyrazolo[1,5-a]pyrimidine-3-carboxamide]: 685 nM; `Cn1cc(NC(=O)c2cnn3ccc(N[C@H]4CNCC(F)(F)C4)nc23)c(C(F)(F)F)n1` (single isomer, unassigned) [Example 219, 5-{[(3S)- or (3R)-5,5-difluoropiperidin-3-yl]amino}-N-[1-methyl-3-(trifluoromethyl)-1H-pyrazol-4-yl]pyrazolo[1,5-a]pyrimidine-3-carboxamide]: 7 nM. Consider `Cn1cc(NC(=O)c2cnn3ccc(N4[C@@H]5CCNC[C@H]4CC5)nc23)c(C(F)(F)F)n1` (single isomer, unassigned) [Example 221, 5-[(1R,6S)- or (1S,6R)-3,9-diazabicyclo[4.2.1]non-9-yl]-N-[1-methyl-3-(trifluoromethyl)-1H-pyrazol-4-yl]pyrazolo[1,5-a]pyrimidine-3-carboxamide trifluoroacetate], for which the IC50 amounted to 330 nM. `Cn1cc(NC(=O)c2cnn3ccc(N4[C@H]5CCNC[C@@H]4CC5)nc23)c(C(F)(F)F)n1` (single isomer, unassigned) [Example 222, 5-[(1R,6S)- or (1S,6R)-3,9-diazabicyclo[4.2.1]non-9-yl]-N-[1-methyl-3-(trifluoromethyl)-1H-pyrazol-4-yl]pyrazolo[1,5-a]pyrimidine-3-carboxamide trifluoroacetate]: the IC50 worked out at 168 nM. On to `Cn1cc(NC(=O)c2cnn3ccc(N4C[C@@H]5CN[C@@H](C5)C4)nc23)c(C(F)(F)F)n1` (single isomer, unassigned) [Example 224, 5-[(1S,5S)- or (1R,5R)-3,6-diazabicyclo[3.2.1]oct-3-yl]-N-[1-methyl-3-(trifluoromethyl)-1H-pyrazol-4-yl]pyrazolo[1,5-a]pyrimidine-3-carboxamide], for which the IC50 stood at 70 nM.

The experiment is the same for the next values; noted with them: IRAK4 IC50 (nM), IMAP fluorescence polarization, 0.5 nM GST tagged IRAK4, 100 μM ATP, 30 minutes at 25° C.
`Cn1cc(NC(=O)c2cnn3ccc(N[C@@H]4CCCC(O)[C@@H]4N)nc23)c(C(F)(F)F)n1` (single isomer, unassigned) [Example 201, 5-{[(1R,2R)- or (1S,2S)-2-amino-3-hydroxycyclohexyl]amino}-N-[1-methyl-3-(trifluoromethyl)-1H-pyrazol-4-yl]pyrazolo[1,5-a]pyrimidine-3-carboxamide] displayed a half-inhibitory concentration (IC50) of 4 nM. For `Cn1cc(NC(=O)c2cnn3ccc(N[C@H]4CC(F)(F)CC[C@H]4N)nc23)c(C(F)F)n1` (single isomer, unassigned) [Example 208, 5-{[(1S,2R)- or (1R,2S)-2-amino-5,5-difluorocyclohexyl]amino}-N-[3-(difluoromethyl)-1-methyl-1H-pyrazol-4-yl]pyrazolo[1,5-a]pyrimidine-3-carboxamide], the IC50 was found to be 38 nM.

For the origin of these results see patent US10329294B2, “Pyrazolopyrimidine inhibitors of IRAK4 activity” (MERCK SHARP & DOHME CORP., priority 2015, dated 2019).
